This passage reports MIC, MFC and IC50 results from ChEMBL document CHEMBL4828718, “Synthesis and Antifungal Activity Evaluation of Phloeodictine Analogues” (J Nat Prod, 2021).

Values after ≈ are worked out from the molar mass of the structure shown.

The test system of the first test is Aspergillus fumigatus. Nature of the test: Antifungal activity against Aspergillus fumigatus ATCC 90906 assessed as fungal growth inhibition incubated for 72 hrs by alamar blue assay. Conditions: Aspergillus fumigatus, ATCC 90906, 72 h, read-out: MIC. Format: functional.
Regarding `CCCCCCCCCCCCCCC1(O)C(C)=C(C)C2=[N+](CC(=O)NCCCNC(=O)OC(C)(C)C)CCCN21` (centres undefined), the MIC (in general, the lowest concentration that inhibits growth of the organism) was 10 µM.

`CCCCCCCCCCCCCCc1c(C)c(C)cn1CCCNC`: the MIC is 21 µM (≈ 7.62 µg/mL).

`C#CC[N+]1=C2C(C)=C(C)C(O)(CCCCCCCCCCCCCC)N2CCC1` (centres undefined): the minimum inhibitory concentration (MIC) is 5.2 µM.

For `CCCCCCCCCCCCCCC1(O)C(C)=C(C)C2=[N+](Cc3ccc(F)cc3)CCCN21` (centres undefined), the MIC turned out to be 3.1 µM.

A further test deals with Candida albicans. As to the kind of experiment: Antifungal activity against Candida albicans ATCC 90028 assessed as fungal growth inhibition incubated for 18 to 24 hrs by alamar blue assay. Format: functional. As to conditions: Candida albicans, ATCC 90028, time 18-24 hrs; read-out: MIC. Background: Alamar Blue is a resazurin reagent that responds to reducing activity.
For the compound `CCCCCCCCCCCCCCC1(O)C(C)=C(C)C2=[N+](CC(=O)NCCCNC(=O)OC(C)(C)C)CCCN21` (centres undefined), the MIC turned out to be 14 µM.

For the compound `CCCCCCCCCCCCCCc1c(C)c(C)cn1CCCNC`, the MIC was 12 µM (≈ 4.35 µg/mL).

For `C#CC[N+]1=C2C(C)=C(C)C(O)(CCCCCCCCCCCCCC)N2CCC1` (centres undefined), the MIC worked out at 5.2 µM.

Regarding `CCCCCCCCCCCCCCC1(O)C(C)=C(C)C2=[N+](Cc3ccc(F)cc3)CCCN21` (centres undefined), the MIC was 6.7 µM.

A further test has as its system Pichia kudriavzevii. Nature of the test: Fungicidal activity against Candida krusei ATCC 6258 assessed as fungal growth inhibition incubated for 18 to 24 hrs by alamar blue assay. Format: functional. As to conditions: Pichia kudriavzevii, ATCC 6258, time 18-24 hrs; read-out: MFC.
Take `CCCCCCCCCCCCCCC1(O)C(C)=C(C)C2=[N+](CC(=O)NCCCNC(=O)OC(C)(C)C)CCCN21` (centres undefined): the MFC (in general, the lowest tested concentration that kills the fungus rather than only halting it) is 5 µM.

With `CCCCCCCCCCCCCCc1c(C)c(C)cn1CCCNC`, the MFC is 6.9 µM (≈ 2.5 µg/mL).

For the compound `C#CC[N+]1=C2C(C)=C(C)C(O)(CCCCCCCCCCCCCC)N2CCC1` (centres undefined), the MFC turned out to be 2.1 µM.

As for `CCCCCCCCCCCCCCC1(O)C(C)=C(C)C2=[N+](Cc3ccc(F)cc3)CCCN21` (centres undefined), the MFC worked out at 2.2 µM.

The next test concerns Pichia kudriavzevii. Nature of the test: Antifungal activity against Candida krusei ATCC 6258 assessed as fungal growth inhibition incubated for 18 to 24 hrs by alamar blue assay. The format is functional. As to conditions: Pichia kudriavzevii, ATCC 6258, time 18-24 hrs; read-out: MIC.
For `CCCCCCCCCCCCCCC1(O)C(C)=C(C)C2=[N+](CC(=O)NCCCNC(=O)OC(C)(C)C)CCCN21` (centres undefined), the MIC turned out to be 5 µM.

With `CCCCCCCCCCCCCCc1c(C)c(C)cn1CCCNC`, the MIC amounted to 6.9 µM (≈ 2.5 µg/mL).

Regarding `C#CC[N+]1=C2C(C)=C(C)C(O)(CCCCCCCCCCCCCC)N2CCC1` (centres undefined), the MIC was determined as 2.1 µM.

As to `CCCCCCCCCCCCCCC1(O)C(C)=C(C)C2=[N+](Cc3ccc(F)cc3)CCCN21` (centres undefined), the MIC is 2.2 µM.

A further test relates to Vero. As to the kind of experiment: Cytotoxicity against African green monkey Vero cells assessed as reduction in cell viability incubated for 48 hrs by neutral red dye based assay. The arrangement: species or system Chlorocebus sabaeus. Conditions: Chlorocebus sabaeus, Vero, 48 h.
Turning to `CCCCCCCCCCCCCCC1(O)C(C)=C(C)C2=[N+](CC(=O)NCCCNC(=O)OC(C)(C)C)CCCN21` (centres undefined), the IC50 – broadly, the concentration at which inhibition is half-maximal – is > 38 µM.

Consider `CCCCCCCCCCCCCCc1c(C)c(C)cn1CCCNC`, for which the IC50 was 35 µM.

On to `C#CC[N+]1=C2C(C)=C(C)C(O)(CCCCCCCCCCCCCC)N2CCC1` (centres undefined), for which the IC50 amounted to 35 µM.

`CCCCCCCCCCCCCCC1(O)C(C)=C(C)C2=[N+](Cc3ccc(F)cc3)CCCN21` (centres undefined): the IC50 stood at 33 µM.

A further test concerns Nakaseomyces glabratus. Nature of the test: Fungicidal activity against Candida glabrata ATCC 90030 assessed as fungal growth inhibition incubated for 18 to 24 hrs by alamar blue assay. Format: functional. Conditions: Nakaseomyces glabratus, ATCC 90030, time 18-24 hrs; read-out: MFC.
`CCCCCCCCCCCCCCC1(O)C(C)=C(C)C2=[N+](CC(=O)NCCCNC(=O)OC(C)(C)C)CCCN21` (centres undefined): the MFC turned out to be 14 µM.

As for `CCCCCCCCCCCCCCc1c(C)c(C)cn1CCCNC`, the MFC turned out to be 6.9 µM (≈ 2.5 µg/mL).

For the compound `C#CC[N+]1=C2C(C)=C(C)C(O)(CCCCCCCCCCCCCC)N2CCC1` (centres undefined), the minimum fungicidal concentration (MFC) was 5.2 µM.

In the case of `CCCCCCCCCCCCCCC1(O)C(C)=C(C)C2=[N+](Cc3ccc(F)cc3)CCCN21` (centres undefined), the MFC came to 2.2 µM.

For the next test, the system named is Cryptococcus neoformans. Nature of the test: Antifungal activity against Cryptococcus neoformans ATCC 90113 assessed as fungal growth inhibition incubated for 72 hrs by alamar blue assay. The format is functional. As to conditions: Cryptococcus neoformans, ATCC 90113, 72 h, read-out: MIC.
`CCCCCCCCCCCCCCC1(O)C(C)=C(C)C2=[N+](CC(=O)NCCCNC(=O)OC(C)(C)C)CCCN21` (centres undefined): the MIC stood at 3.8 µM.

For `CCCCCCCCCCCCCCc1c(C)c(C)cn1CCCNC`, the MIC came out at 3.3 µM (≈ 1.2 µg/mL).

In the case of `C#CC[N+]1=C2C(C)=C(C)C(O)(CCCCCCCCCCCCCC)N2CCC1` (centres undefined), the MIC was found to be 1.5 µM.

As for `CCCCCCCCCCCCCCC1(O)C(C)=C(C)C2=[N+](Cc3ccc(F)cc3)CCCN21` (centres undefined), the MIC was found to be 1.5 µM.

The subject of a further test is Cryptococcus neoformans. As to the kind of experiment: Fungicidal activity against Cryptococcus neoformans ATCC 90113 assessed as fungal growth inhibition incubated for 72 hrs by alamar blue assay. The format is functional. Conditions: Cryptococcus neoformans, ATCC 90113, 72 h, read-out: MFC.
Turning to `CCCCCCCCCCCCCCC1(O)C(C)=C(C)C2=[N+](CC(=O)NCCCNC(=O)OC(C)(C)C)CCCN21` (centres undefined), the MFC stood at 3.8 µM.

On to `CCCCCCCCCCCCCCc1c(C)c(C)cn1CCCNC`, for which the MFC came out at 6.9 µM (≈ 2.5 µg/mL).

Consider `C#CC[N+]1=C2C(C)=C(C)C(O)(CCCCCCCCCCCCCC)N2CCC1` (centres undefined), for which the MFC turned out to be 2.3 µM.

For the compound `CCCCCCCCCCCCCCC1(O)C(C)=C(C)C2=[N+](Cc3ccc(F)cc3)CCCN21` (centres undefined), the MFC came to 1.5 µM.

In the next test the test system is Candida albicans. As to the kind of experiment: Fungicidal activity against Candida albicans ATCC 90028 assessed as fungal growth inhibition incubated for 18 to 24 hrs by alamar blue assay. The format is functional. Conditions: Candida albicans, ATCC 90028, time 18-24 hrs; read-out: MFC.
`CCCCCCCCCCCCCCC1(O)C(C)=C(C)C2=[N+](CC(=O)NCCCNC(=O)OC(C)(C)C)CCCN21` (centres undefined): the MFC was found to be 14 µM.

Consider `CCCCCCCCCCCCCCc1c(C)c(C)cn1CCCNC`, for which the MFC was 12 µM (≈ 4.35 µg/mL).

Regarding `C#CC[N+]1=C2C(C)=C(C)C(O)(CCCCCCCCCCCCCC)N2CCC1` (centres undefined), the MFC was found to be 5.2 µM.

`CCCCCCCCCCCCCCC1(O)C(C)=C(C)C2=[N+](Cc3ccc(F)cc3)CCCN21` (centres undefined): the MFC amounted to 6.7 µM.

The test system of another test is Nakaseomyces glabratus. Nature of the test: Antifungal activity against Candida glabrata ATCC 90030 assessed as fungal growth inhibition incubated for 18 to 24 hrs by alamar blue assay. Format: functional. As to conditions: Nakaseomyces glabratus, ATCC 90030, time 18-24 hrs; read-out: MIC.
With `CCCCCCCCCCCCCCC1(O)C(C)=C(C)C2=[N+](CC(=O)NCCCNC(=O)OC(C)(C)C)CCCN21` (centres undefined), the MIC was determined as 7.6 µM.

For `CCCCCCCCCCCCCCc1c(C)c(C)cn1CCCNC`, the MIC was determined as 6.9 µM (≈ 2.5 µg/mL).

For `C#CC[N+]1=C2C(C)=C(C)C(O)(CCCCCCCCCCCCCC)N2CCC1` (centres undefined), the MIC is 5.2 µM.

Regarding `CCCCCCCCCCCCCCC1(O)C(C)=C(C)C2=[N+](Cc3ccc(F)cc3)CCCN21` (centres undefined), the MIC was found to be 2.2 µM.

The subject of the next test is Aspergillus fumigatus. Nature of the test: Fungicidal activity against Aspergillus fumigatus ATCC 90906 assessed as fungal growth inhibition incubated for 72 hrs by alamar blue assay. The format is functional. Conditions: Aspergillus fumigatus, ATCC 90906, 72 h, read-out: MFC.
As for `CCCCCCCCCCCCCCC1(O)C(C)=C(C)C2=[N+](CC(=O)NCCCNC(=O)OC(C)(C)C)CCCN21` (centres undefined), the MFC is 15 µM.

As for `CCCCCCCCCCCCCCc1c(C)c(C)cn1CCCNC`, the MFC was found to be 23 µM (≈ 8.34 µg/mL).

Regarding `C#CC[N+]1=C2C(C)=C(C)C(O)(CCCCCCCCCCCCCC)N2CCC1` (centres undefined), the MFC worked out at 5.2 µM.

As for `CCCCCCCCCCCCCCC1(O)C(C)=C(C)C2=[N+](Cc3ccc(F)cc3)CCCN21` (centres undefined), the MFC was 3.1 µM.
